{"source": "ChEMBL document CHEMBL4706534", "about": "“1,2,3-Triazole-containing hybrids with potential antibacterial activity against methicillin-resistant Staphylococcus aureus (MRSA)” (Eur J Med Chem, 2020)", "key": {"Staphylococcus aureus [1]": {"system": "Staphylococcus aureus", "test": "Antibacterial activity against Methicillin-resistant Staphylococcus aureus ATCC 33591", "format": "functional, organism-based"}, "Staphylococcus aureus [2]": {"system": "Staphylococcus aureus", "test": "Potentiation of oxacillin-induced antibacterial activity against methicillin-resistant Staphylococcus aureus ATCC BAA-44 assessed as reduction in oxacillin MIC preincubated for 30 mins followed by oxacillin addition and measured after 16 hrs by broth microdilution method", "format": "functional", "conditions": "time 16.5 hrs"}, "Staphylococcus aureus [3]": {"system": "Staphylococcus aureus", "test": "Antibiofilm activity against methicillin-resistant Staphylococcus aureus ATCC BAA-44 incubated for 24 hrs by crystal violet-staining based assay", "format": "functional, organism-based", "conditions": "ATCC BAA-44, 24 h"}}, "data": [{"smiles": "CN[C@H](CC(C)C)C(=O)N[C@@H]1Cc2ccc(c(Cl)c2)Oc2cc3cc(c2O[C@@H]2O[C@H](CO)[C@@H](O)[C@H](O)[C@H]2O[C@H]2C[C@](C)(N)[C@H](O)[C@H](C)O2)Oc2ccc(cc2Cl)[C@@H](O)[C@@H]2NC(=O)[C@H](NC(=O)[C@@H]3NC(=O)[C@H](CC(=O)O)NC1=O)c1ccc(O)c(c1)-c1c(O)cc(O)cc1[C@H](C(=O)NCCCCCc1cn(CCCCCNC(=O)[C@@H]3NC(=O)[C@H]4NC(=O)[C@H](NC(=O)[C@@H]5NC(=O)[C@H](CC(=O)O)NC(=O)[C@H](NC(=O)[C@@H](CC(C)C)NC)Cc6ccc(c(Cl)c6)Oc6cc5cc(c6O[C@@H]5O[C@H](CO)[C@@H](O)[C@H](O)[C@H]5O[C@H]5C[C@](C)(N)[C@H](O)[C@H](C)O5)Oc5ccc(cc5Cl)[C@H]4O)c4ccc(O)c(c4)-c4c(O)cc(O)cc43)nn1)NC2=O", "values": [{"measurement": "MIC", "setting": "Staphylococcus aureus [1]", "result": 1.3, "unit": "µg/mL"}]}, {"smiles": "C/C(=C/c1ccccc1)Cn1cc(CCCCCc2nc(N)[nH]c2-c2ccc(C(C)C)cc2)nn1", "values": [{"measurement": "fold change (FC)", "setting": "Staphylococcus aureus [2]", "result": 2}, {"measurement": "IC50", "setting": "Staphylococcus aureus [3]", "result": 1.34, "unit": "µM"}]}, {"smiles": "C/C(=C/CC1CCCCC1)Cn1cc(CCCCCc2nc(N)[nH]c2-c2ccccc2)nn1", "values": [{"measurement": "fold change (FC)", "setting": "Staphylococcus aureus [2]", "result": 2}, {"measurement": "IC50", "setting": "Staphylococcus aureus [3]", "result": 1.42, "unit": "µM"}]}, {"smiles": "CN[C@H](CC(C)C)C(=O)N[C@@H]1Cc2ccc(c(Cl)c2)Oc2cc3cc(c2O[C@@H]2O[C@H](CO)[C@@H](O)[C@H](O)[C@H]2O[C@H]2C[C@](C)(N)[C@H](O)[C@H](C)O2)Oc2ccc(cc2Cl)[C@@H](O)[C@@H]2NC(=O)[C@H](NC(=O)[C@@H]3NC(=O)[C@H](CC(=O)O)NC1=O)c1ccc(O)c(c1)-c1c(O)cc(O)cc1[C@H](C(=O)NCCCCCCn1cc(CCCNC(=O)[C@@H]3NC(=O)[C@H]4NC(=O)[C@H](NC(=O)[C@@H]5NC(=O)[C@H](CC(=O)O)NC(=O)[C@H](NC(=O)[C@@H](CC(C)C)NC)Cc6ccc(c(Cl)c6)Oc6cc5cc(c6O[C@@H]5O[C@H](CO)[C@@H](O)[C@H](O)[C@H]5O[C@H]5C[C@](C)(N)[C@H](O)[C@H](C)O5)Oc5ccc(cc5Cl)[C@H]4O)c4ccc(O)c(c4)-c4c(O)cc(O)cc43)nn1)NC2=O", "values": [{"measurement": "MIC", "setting": "Staphylococcus aureus [1]", "result": 1.3, "unit": "µg/mL"}]}, {"smiles": "CCCc1ccc(/C=C(/C)Cn2cc(CCCCCc3nc(N)[nH]c3-c3ccccc3)nn2)cc1", "values": [{"measurement": "fold change (FC)", "setting": "Staphylococcus aureus [2]", "result": 2}, {"measurement": "IC50", "setting": "Staphylococcus aureus [3]", "result": 1.42, "unit": "µM"}]}, {"smiles": "CCCCCCCCCCCC/C=C(/C)Cn1cc(CCCCCc2nc(N)[nH]c2-c2ccccc2)nn1", "values": [{"measurement": "fold change (FC)", "setting": "Staphylococcus aureus [2]", "result": 2}, {"measurement": "IC50", "setting": "Staphylococcus aureus [3]", "result": 1.42, "unit": "µM"}]}, {"smiles": "CN[C@H](CC(C)C)C(=O)N[C@@H]1Cc2ccc(c(Cl)c2)Oc2cc3cc(c2O[C@@H]2O[C@H](CO)[C@@H](O)[C@H](O)[C@H]2O[C@H]2C[C@](C)(N)[C@H](O)[C@H](C)O2)Oc2ccc(cc2Cl)[C@@H](O)[C@@H]2NC(=O)[C@H](NC(=O)[C@@H]3NC(=O)[C@H](CC(=O)O)NC1=O)c1ccc(O)c(c1)-c1c(O)cc(O)cc1[C@H](C(=O)NCCCCCc1cn(CCCCNC(=O)[C@@H]3NC(=O)[C@H]4NC(=O)[C@H](NC(=O)[C@@H]5NC(=O)[C@H](CC(=O)O)NC(=O)[C@H](NC(=O)[C@@H](CC(C)C)NC)Cc6ccc(c(Cl)c6)Oc6cc5cc(c6O[C@@H]5O[C@H](CO)[C@@H](O)[C@H](O)[C@H]5O[C@H]5C[C@](C)(N)[C@H](O)[C@H](C)O5)Oc5ccc(cc5Cl)[C@H]4O)c4ccc(O)c(c4)-c4c(O)cc(O)cc43)nn1)NC2=O", "values": [{"measurement": "MIC", "setting": "Staphylococcus aureus [1]", "result": 1.3, "unit": "µg/mL"}]}, {"smiles": "C/C(=C/c1ccccc1)Cn1cc(CCCCCc2nc(N)[nH]c2-c2ccc(-c3ccccc3)cc2)nn1", "values": [{"measurement": "fold change (FC)", "setting": "Staphylococcus aureus [2]", "result": 2}, {"measurement": "IC50", "setting": "Staphylococcus aureus [3]", "result": 1.34, "unit": "µM"}]}, {"smiles": "C/C(=C/c1ccccc1)Cn1cc(CCCCCc2nc(N)[nH]c2-c2ccc(F)cc2)nn1", "values": [{"measurement": "fold change (FC)", "setting": "Staphylococcus aureus [2]", "result": 2}, {"measurement": "IC50", "setting": "Staphylococcus aureus [3]", "result": 1.34, "unit": "µM"}]}, {"smiles": "COc1ccc(-c2[nH]c(N)nc2CCCCCc2cn(C/C(C)=C\\c3ccccc3)nn2)cc1", "values": [{"measurement": "fold change (FC)", "setting": "Staphylococcus aureus [2]", "result": 2}, {"measurement": "IC50", "setting": "Staphylococcus aureus [3]", "result": 1.34, "unit": "µM"}]}, {"smiles": "C/C(=C/c1ccccc1)Cn1cc(CCCCCc2nc(N)[nH]c2-c2cc(F)cc(F)c2)nn1", "values": [{"measurement": "fold change (FC)", "setting": "Staphylococcus aureus [2]", "result": 2}, {"measurement": "IC50", "setting": "Staphylococcus aureus [3]", "result": 1.34, "unit": "µM"}]}]}
